Results as given in the supplement of paper PMC5908809.

Legend:
[1] = tested on: normal NK cells expanded with K562-aAPC; test: drug sensitivity score (DSS) (DSS units); higher = more sensitive; extreme values may be limits of the assay; conditions: 72 h; IL-2 2.5 ng/mL
Description: (§1)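 Drug sensitivity and resistance testing on K562-aAPC-expanded normal NK cells: 5 concentrations (10-fold steps over a 10,000-fold range), 72 h at 37 °C, viability by CellTiter-Glo normalised to DMSO and benzethonium chloride controls; DSS from the fitted curve.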

NK-YS (IL-2 2.5 ng/mL) [2] = test: as above; conditions: 72 h
KHYG-1 (IL-2 2.5 ng/mL) [3] = test: as above; conditions: 72 h
[4] = tested on: normal primary NK cells, pool 1 (3 donors), resting (IL-2 0 ng/mL); test: as above; conditions: 72 h
[5] = tested on: normal primary NK cells, pool 1 (3 donors) (IL-2 2.5 ng/mL); test: as above; conditions: 72 h
YT (IL-2 2.5 ng/mL) [6] = test: as above; conditions: 72 h
DERL-7 (IL-2 2.5 ng/mL) [7] = test: as above; conditions: 72 h
KAI3 (IL-2 2.5 ng/mL) [8] = test: as above; conditions: 72 h
NKL (IL-2 2.5 ng/mL) [9] = test: as above; conditions: 72 h
SNK-6 (IL-2 2.5 ng/mL) [10] = test: as above; conditions: 72 h
IMC-1 (IL-2 20 ng/mL) [11] = test: as above; conditions: 72 h
[12] = tested on: normal primary NK cells, pool 3 (3 donors) (IL-2 2.5 ng/mL); test: as above; conditions: 72 h
NK-92 (IL-2 2.5 ng/mL) [13] = test: as above; conditions: 72 h
[14] = tested on: normal primary NK cells, pool 2 (3 donors) (IL-2 2.5 ng/mL); test: as above; conditions: 72 h
NK-YS (IL-2 2.5 ng/mL) [15] = test: percent inhibition of viability; higher = more inhibition; conditions: 72 h
KHYG-1 (IL-2 2.5 ng/mL) [16] = test: as above; conditions: 72 h
[17] = tested on: normal primary NK cells, pool 1 (3 donors), resting (IL-2 0 ng/mL); test: as above; conditions: 72 h
[18] = tested on: normal primary NK cells, pool 1 (3 donors) (IL-2 2.5 ng/mL); test: as above; conditions: 72 h
YT (IL-2 2.5 ng/mL) [19] = test: as above; conditions: 72 h
DERL-7 (IL-2 2.5 ng/mL) [20] = test: as above; conditions: 72 h
KAI3 (IL-2 2.5 ng/mL) [21] = test: as above; conditions: 72 h
NKL (IL-2 2.5 ng/mL) [22] = test: as above; conditions: 72 h
SNK-6 (IL-2 2.5 ng/mL) [23] = test: as above; conditions: 72 h
IMC-1 (IL-2 20 ng/mL) [24] = test: as above; conditions: 72 h
[25] = tested on: normal primary NK cells, pool 3 (3 donors) (IL-2 2.5 ng/mL); test: as above; conditions: 72 h
NK-92 (IL-2 2.5 ng/mL) [26] = test: as above; conditions: 72 h
[27] = tested on: normal primary NK cells, pool 2 (3 donors) (IL-2 2.5 ng/mL); test: as above; conditions: 72 h
[28] = tested on: normal NK cells expanded with K562-aAPC; test: as above; conditions: 72 h, IL-2 2.5 ng/mL
Description: as §1

N#CC1(c2ccc(NC(=O)c3cccnc3NCc3ccncc3)cc2)CCCC1 [Apatinib] (max concentration tested 10000 nM)
Conditions | drug sensitivity score
DERL-7 (IL-2 2.5 ng/mL) [7] | 0
IMC-1 (IL-2 20 ng/mL) [11] | 0
KAI3 (IL-2 2.5 ng/mL) [8] | 0.17
KHYG-1 (IL-2 2.5 ng/mL) [3] | 0.9
NK-92 (IL-2 2.5 ng/mL) [13] | 4.58
NK-YS (IL-2 2.5 ng/mL) [2] | 0.26
NKL (IL-2 2.5 ng/mL) [9] | 0
SNK-6 (IL-2 2.5 ng/mL) [10] | 0
YT (IL-2 2.5 ng/mL) [6] | 0
[1] | 0
[4] | 2.45
[5] | 0
[12] | 0
[14] | 0

percent inhibition of viability [%]
Conditions | 1 nM | 10 nM | 100 nM | 1000 nM | 10000 nM
DERL-7 (IL-2 2.5 ng/mL) [20] | -0.33 | -0.49 | -2.76 | -4.82 | 1.97
IMC-1 (IL-2 20 ng/mL) [24] | -6.4 | -0.28 | -6.01 | 0.8 | 2.01
KAI3 (IL-2 2.5 ng/mL) [21] | 3.83 | 2.76 | 6.74 | 10.3 | 12.3
KHYG-1 (IL-2 2.5 ng/mL) [16] | 4.44 | 2.43 | 2.62 | 6.69 | 19
NK-92 (IL-2 2.5 ng/mL) [26] | -3.67 | -7.24 | 2.24 | 10.8 | 52.7
NK-YS (IL-2 2.5 ng/mL) [15] | -1 | 2.11 | 4.05 | 9.52 | 12.6
NKL (IL-2 2.5 ng/mL) [22] | -16.2 | -14.6 | -14.8 | -14.5 | -12.3
SNK-6 (IL-2 2.5 ng/mL) [23] | 21 | 12.9 | 7.35 | 12.6 | 28.4
YT (IL-2 2.5 ng/mL) [19] | -0.29 | 0.42 | 2.63 | 7.54 | 7.83
[17] | -2.35 | 4.05 | 8.46 | 11.4 | 31.2
[18] | -14.6 | -10.1 | -4.55 | -2.69 | 6.98
[25] | -6.46 | -8.45 | -1.68 | -7.82 | 1.12
[27] | -4.33 | -2.31 | -5.54 | -1.25 | -5.6
[28] | -1.56 | -5.13 | -0.99 | 0.76 | 2.66

Cc1c(CN2CCN(C(=O)[C@H](C)O)CC2)sc2c(N3CCOCC3)nc(-c3cnc(N)nc3)nc12 [Apitolisib] (max concentration tested 10000 nM)
Conditions | drug sensitivity score
DERL-7 (IL-2 2.5 ng/mL) [7] | 18
IMC-1 (IL-2 20 ng/mL) [11] | 0
KAI3 (IL-2 2.5 ng/mL) [8] | 9.5
KHYG-1 (IL-2 2.5 ng/mL) [3] | 7.06
NK-92 (IL-2 2.5 ng/mL) [13] | 11.3
NK-YS (IL-2 2.5 ng/mL) [2] | 10.2
NKL (IL-2 2.5 ng/mL) [9] | 10.3
SNK-6 (IL-2 2.5 ng/mL) [10] | 6.63
YT (IL-2 2.5 ng/mL) [6] | 9.84
[1] | 10
[4] | 4.44
[5] | 8.91
[12] | 4.24
[14] | 6.81

percent inhibition of viability [%]
Conditions | 1 nM | 10 nM | 100 nM | 1000 nM | 10000 nM
DERL-7 (IL-2 2.5 ng/mL) [20] | 3.04 | 1.57 | 29.2 | 78.4 | 92.4
IMC-1 (IL-2 20 ng/mL) [24] | -4.85 | -5.41 | -12.6 | -55.2 | 8.81
KAI3 (IL-2 2.5 ng/mL) [21] | 0.17 | -2.02 | 17.9 | 39.6 | 65.3
KHYG-1 (IL-2 2.5 ng/mL) [16] | -2.58 | -0.95 | -1.53 | 18 | 76.4
NK-92 (IL-2 2.5 ng/mL) [26] | 16 | 7.33 | 22.5 | 45.1 | 57.8
NK-YS (IL-2 2.5 ng/mL) [15] | -2.41 | 1.63 | 8.5 | 47.2 | 73.8
NKL (IL-2 2.5 ng/mL) [22] | -12 | -7.01 | 2.26 | 53.8 | 65.7
SNK-6 (IL-2 2.5 ng/mL) [23] | 13.8 | 9.78 | 15.2 | 21.3 | 45.5
YT (IL-2 2.5 ng/mL) [19] | 0.06 | 0.22 | 4.58 | 47.5 | 71
[17] | -0.63 | -14.4 | -6.11 | 24.3 | 34.8
[18] | -11.8 | -13.1 | 4.5 | 40.1 | 75
[25] | -10.7 | -12.9 | -5.47 | 6.17 | 59.6
[27] | -13.9 | -6.6 | 0.47 | 22.1 | 66.1
[28] | 2.46 | -0.12 | 17.4 | 39.8 | 85.8
